The source of these data is ChEMBL document CHEMBL1129537, “The squalestatins: inhibitors of squalene synthase. Enzyme inhibitory activities and in vivo evaluation of C3-modified analogues” (J Med Chem, 1996).

The target of one test is T1, Squalene synthase (Rattus norvegicus, UniProt Q02769).
T1 sequence (Q02769 whole entry): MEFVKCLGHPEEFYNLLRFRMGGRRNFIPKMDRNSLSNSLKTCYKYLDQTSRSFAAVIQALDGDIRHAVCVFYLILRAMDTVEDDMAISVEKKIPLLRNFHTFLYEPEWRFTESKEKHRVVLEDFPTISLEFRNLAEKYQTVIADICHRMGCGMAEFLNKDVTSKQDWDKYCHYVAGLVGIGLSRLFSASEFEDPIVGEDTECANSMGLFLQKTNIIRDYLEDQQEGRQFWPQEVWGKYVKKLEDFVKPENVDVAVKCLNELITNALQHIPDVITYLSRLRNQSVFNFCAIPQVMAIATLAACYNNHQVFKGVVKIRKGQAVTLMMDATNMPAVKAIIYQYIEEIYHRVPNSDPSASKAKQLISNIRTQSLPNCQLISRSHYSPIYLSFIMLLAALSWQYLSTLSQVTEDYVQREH
Briefly: In vitro inhibitory activity against Squalene synthase from rats.

Test [1] is described as follows: Effect on % of cholesterol reduction measured on serum cholesterol level in marmosets after single iv dose 30 mg/kg on day 7. The test is classed as functional, Callitrichinae.
Test [2] can be described thus: Effect on % of cholesterol reduction measured on serum cholesterol level in marmosets after single iv dose 10 mg/kg on day 2. It counts as functional, Callitrichinae.
Test [3] in a line: Effect on % of cholesterol reduction measured on serum cholesterol level in marmosets after single iv dose 30 mg/kg on day 3. The test is classed as functional, Callitrichinae.
The nature of test [4]: Effect on % of cholesterol reduction measured on serum cholesterol level in marmosets after single iv dose (3 times a day for 3 days) 16.7 mg/kg on day 7. It counts as functional, Callitrichinae.
Test [5] in a line: Effect on % of cholesterol reduction measured on serum cholesterol level in marmosets after single iv dose 10 mg/kg on day 3. It counts as functional, Callitrichinae.
Test [6] can be described thus: Effect on % of cholesterol reduction measured on serum cholesterol level in marmosets after single iv dose 50 mg/kg on day 2. The test is classed as functional, Callitrichinae.
A short description of test [7]: Effect on % of cholesterol reduction measured on serum cholesterol level in marmosets after single iv dose 30 mg/kg on day 2. It counts as functional, Callitrichinae.
The nature of test [8]: Effect on % of cholesterol reduction measured on serum cholesterol level in marmosets after single iv dose 50 mg/kg on day 7. The test is classed as functional, Callitrichinae.
Test [9] is described as follows: Effect on % of cholesterol reduction measured on serum cholesterol level in marmosets after single iv dose 16.7 mg/kg on day 2. The test is classed as functional, Callitrichinae.
A short description of test [10]: Effect on % of cholesterol reduction measured on serum cholesterol level in marmosets after single iv dose 50 mg/kg on day 3. It counts as functional, Callitrichinae.
The nature of test [11]: Effect on % of cholesterol reduction measured on serum cholesterol level in marmosets after single iv dose 16.7 mg/kg on day 3. The test is classed as functional, Callitrichinae.
Test [12] in a line: Effect on % of cholesterol reduction measured on serum cholesterol level in marmosets after single iv dose 10 mg/kg on day 7. The test is classed as functional, Callitrichinae.

SMILES strings stand for the structures.

`C=C(CC[C@]12O[C@H](CNC(N)=O)[C@@](O)(C(=O)O)[C@](C(=O)O)(O1)[C@H](OC(=O)/C=C/[C@@H](C)C[C@@H](C)CC)[C@H]2O)[C@@H](OC(C)=O)[C@H](C)Cc1ccccc1`: the IC50 against Squalene synthase was found to be 0.003 µM.

For the compound `C=C(CC[C@]12O[C@H](COC)[C@@](O)(C(=O)O)[C@](C(=O)O)(O1)[C@H](O)[C@H]2O)[C@@H](OC(C)=O)[C@H](C)Cc1ccccc1`, at Squalene synthase, the concentration for half-maximal inhibition (IC50) is greater than 1 µM. The same measure, in the same setting: to `C=C(CC[C@]12O[C@H](CN)[C@@](O)(C(=O)O)[C@](C(=O)O)(O1)[C@H](O)[C@H]2O)[C@@H](OC(C)=O)[C@H](C)Cc1ccccc1` belongs greater than 1 µM; to `C=C(CC[C@]12O[C@H](CN)[C@@](O)(C(=O)O)[C@](C(=O)O)(O1)[C@H](OC(=O)/C=C/[C@@H](C)C[C@@H](C)CC)[C@H]2O)[C@@H](OC(C)=O)[C@H](C)Cc1ccccc1`, 0.004 µM; to `C=C(CC[C@]12O[C@H](CN(C)C)[C@@](O)(C(=O)O)[C@](C(=O)O)(O1)[C@H](OC(=O)/C=C/[C@@H](C)C[C@@H](C)CC)[C@H]2O)[C@@H](OC(C)=O)[C@H](C)Cc1ccccc1`, 0.01 µM. At Squalene synthase, `C=C(CC[C@]12O[C@H](COC)[C@@](O)(C(=O)O)[C@](C(=O)O)(O1)[C@H](OC(=O)/C=C/[C@@H](C)C[C@@H](C)CC)[C@H]2O)[C@@H](OC(C)=O)[C@H](C)Cc1ccccc1` gave a concentration for half-maximal inhibition (IC50) of 0.013 µM. The same measure, in the same setting: to `C=C(CC[C@]12O[C@H](CNC(N)=O)[C@@](O)(C(=O)O)[C@](C(=O)O)(O1)[C@H](O)[C@H]2O)[C@@H](OC(C)=O)[C@H](C)Cc1ccccc1` belongs greater than 1 µM; to `C=C(CC[C@]12O[C@H](CNS(=O)(=O)C(F)(F)F)[C@@](O)(C(=O)O)[C@](C(=O)O)(O1)[C@H](O)[C@H]2O)[C@@H](OC(C)=O)[C@H](C)Cc1ccccc1`, 1 µM; to `C=C(CC[C@]12O[C@H](CN=C(N)N)[C@@](O)(C(=O)O)[C@](C(=O)O)(O1)[C@H](OC(=O)/C=C/[C@@H](C)C[C@@H](C)CC)[C@H]2O)[C@@H](OC(C)=O)[C@H](C)Cc1ccccc1`, 0.065 µM. Still for that read-out and setting: with `C=C(CC[C@]12O[C@H](C(C)=O)[C@@](O)(C(=O)O)[C@](C(=O)O)(O1)[C@H](OC(=O)/C=C/[C@@H](C)C[C@@H](C)CC)[C@H]2O)[C@@H](OC(C)=O)[C@H](C)Cc1ccccc1` the figure was 0.011 µM. With `C=C(CC[C@]12O[C@H](CO)[C@@](O)(C(=O)O)[C@](C(=O)O)(O1)[C@H](OC(=O)/C=C/[C@@H](C)C[C@@H](C)CC)[C@H]2O)[C@@H](OC(C)=O)[C@H](C)Cc1ccccc1`, the Reduction in test [1] came to 16%; in test [2] it was 5%; in [3], 20%; in test [4], 32%; in test [5] it was 2%; in test [6], 31%. The Reduction in test [7] was 30%; in test [8] it was 28%; in test [9], 47%; in [10], 21%; in test [11], 62%; in test [12], 14%. As to `C=C(CC[C@]12O[C@H](C(C)=O)[C@@](O)(C(=O)O)[C@](C(=O)O)(O1)[C@H](O)[C@H]2O)[C@@H](OC(C)=O)[C@H](C)Cc1ccccc1`, on Squalene synthase, inhibition was half-maximal at 0.5 µM (IC50). On the same count and under the same terms, with `C=C(CC[C@]12O[C@H](CNS(=O)(=O)C(F)(F)F)[C@@](O)(C(=O)O)[C@](C(=O)O)(O1)[C@H](OC(=O)/C=C/[C@@H](C)C[C@@H](C)CC)[C@H]2O)[C@@H](OC(C)=O)[C@H](C)Cc1ccccc1` the figure was 0.06 µM.
